Test results taken from article PMC10226046, “Prodrug Strategies for the Development of β-L-5-((E)-2-Bromovinyl)-1-((2S,4S)-2-(hydroxymethyl)-1,3-(dioxolane-4-yl))uracil (L-BHDU) against Varicella Zoster Virus (VZV)” (Journal of Medicinal Chemistry, 2023).
Read-outs that look alike come from different tables or passages of the source.

Key:
VZV-ORF57-Luc [1] = test: microbe, parasite or virus in culture; conditions: Human alphaherpesvirus 3, ARPE-19, cell-free VZV-ORF57-Luc, ARPE-19 cells, 72 hpi, bioluminescence imaging
in vitro = conditions: human
VZV-ORF57-Luc [2] = conditions: for EC50: cell-free VZV-ORF57-Luc, ARPE-19 cells, 72 hpi, bioluminescence imaging
[3] = Neutral red dye uptake cytotoxicity assay in ARPE-19 cells; conditions: human
VZV = conditions: cited from earlier work
VZV-ORF57-ΔTK = test: microbe, parasite or virus in culture; format: cell-based, Varicella zoster virus
VZV-ORF57-ΔTKTS = test: microbe, parasite or virus in culture; format: cell-based, Varicella zoster virus
VZV-ORF57-Luc [4] = test: microbe, parasite or virus in culture; format: cell-based, Varicella zoster virus
VZV-ORF57-ΔTS = test: microbe, parasite or virus in culture; format: cell-based, Varicella zoster virus
ARPE-19 cells = test: Neutral red dye uptake cytotoxicity assay in ARPE-19 cells; conditions: 72 h, neutral red assay
[5] = selectivity index = CC50/EC50, ARPE-19 cells
[6] = Human alphaherpesvirus 3, ARPE-19
[7] = cell-associated virus, ARPE-19 cells
[8] = cell-associated VZV-ORF57-ΔTK, ARPE-19 cells, read-out: EC50
[9] = cell-associated VZV-ORF57-ΔTKTS, ARPE-19 cells, read-out: EC50
[10] = cell-associated VZV-ORF57-Luc, ARPE-19 cells, read-out: EC50
[11] = cell-associated VZV-ORF57-ΔTS, ARPE-19 cells, read-out: EC50

| Compound | EC50 (VZV-ORF57-Luc [1]) | SI (CC50/EC50) (VZV-ORF57-Luc [2]) | SI (CC50/EC50) (VZV-ORF57-Luc [2]; [5]) | CC50 at 72 h [3] | other results |
| --- | --- | --- | --- | --- | --- |
| CC(C)OC(=O)C(C)NP(=O)(OC[C@H]1OC[C@@H](n2cc(/C=C/Br)c(=O)[nH]c2=O)O1)Oc1ccccc1 (stereo in doubt) [Isopropyl ((((2S,4S)-4-(5-((E)-2-Bromovinyl)-2,4-dioxo-3,4-dihydropyrimidin-1(2H)-yl)-1,3-dioxolan-2-yl)methoxy)(phenoxy)phosphoryl)-L-alaninate] | 1690 nM | >206 |  |  | CC50 (in vitro): > 100000 nM |
| CC(C)OC(=O)C(Cc1ccccc1)NP(=O)(OC[C@H]1OC[C@@H](n2cc(/C=C/Br)c(=O)[nH]c2=O)O1)Oc1ccccc1 (stereo in doubt) [Isopropyl ((((2S,4S)-4-(5-((E)-2-Bromovinyl)-2,4-dioxo-3,4-dihydropyrimidin-1(2H)-yl)-1,3-dioxolan-2-yl)methoxy)(phenoxy)phosphoryl)-L-phenylalaninate] | 1530 nM | 61 | 61 |  | CC50 at 72 h (in vitro): 93700 nM |
| CC(C)(N)C(=O)OC[C@H]1OC[C@@H](n2cc(/C=C/Br)c(=O)[nH]c2=O)O1.Cl [L-BHDU-2-aminoisobutyric acid (24), L-BHDU-5′-O-2-aminoisobutyric Acid Ester Hydrochloride] | 38.5 nM | >2597 | >2597 | > 100000 nM |  |
| CC(C)[C@H](N)C(=O)OC[C@H]1OC[C@@H](n2cc(/C=C/Br)c(=O)[nH]c2=O)O1.Cl [L-BHDU-D-valine (18), L-BHDU-5′-O-D-valyl Ester Hydrochloride] | 140 nM | >709 | >709 | > 100000 nM | EC50 (VZV-ORF57-Luc [2]): 141 nM |
| C[C@@H](N)C(=O)OC[C@H]1OC[C@@H](n2cc(/C=C/Br)c(=O)[nH]c2=O)O1.Cl [L-BHDU-L-alanine (15), L-BHDU-5′-O-L-alanyl Ester Hydrochloride] | 33.8 nM | >2959 | >2959 | > 100000 nM |  |
| Cl.NC(=O)CC[C@H](N)C(=O)OC[C@H]1OC[C@@H](n2cc(/C=C/Br)c(=O)[nH]c2=O)O1 [L-BHDU-L-glutamine (23), L-BHDU-5′-O-L-glutamine Ester Hydrochloride] | 126 nM | >794 | >794 | > 100000 nM |  |
| CC[C@H](C)[C@H](N)C(=O)OC[C@H]1OC[C@@H](n2cc(/C=C/Br)c(=O)[nH]c2=O)O1.Cl [L-BHDU-L-isoleucine (21), L-BHDU-5′-O-L-isoleucine Ester Hydrochloride] | 65.8 nM | >1520 | >1520 | > 100000 nM |  |
| CC(C)C[C@H](N)C(=O)OC[C@H]1OC[C@@H](n2cc(/C=C/Br)c(=O)[nH]c2=O)O1.Cl [L-BHDU-L-leucine (20), L-BHDU-5′-O-L-leucine Ester Hydrochloride] | 41.4 nM | >2415 | >2415 | > 100000 nM |  |
| Cl.NCCCC[C@H](N)C(=O)OC[C@H]1OC[C@@H](n2cc(/C=C/Br)c(=O)[nH]c2=O)O1 [L-BHDU-L-lysine (25), L-BHDU-5′-O-L-lysine Ester Hydrochloride] | 40.3 nM |  | >2481 | > 100000 nM |  |
| Cl.N[C@H](Cc1ccccc1)C(=O)OC[C@H]1OC[C@@H](n2cc(/C=C/Br)c(=O)[nH]c2=O)O1 [L-BHDU-L-phenylalanine (16), L-BHDU-5′-O-L-phenylalanyl Ester Hydrochloride] | 28 nM | >3484 | >3484 | > 100000 nM | EC50 (VZV-ORF57-Luc [2]): 28.7 nM; SI (CC50/EC50) (VZV-ORF57-Luc [2]; selectivity index = CC50/EC50, ARPE-19 cells, listed as 16): > 3484 |
| Cl.O=C(OC[C@H]1OC[C@@H](n2cc(/C=C/Br)c(=O)[nH]c2=O)O1)[C@@H]1CCCN1 [L-BHDU-L-proline (22), L-BHDU-5′-O-L-proline Ester Hydrochloride] | 51.7 nM | >1934 | >1934 | > 100000 nM |  |
| Cl.N[C@@H](Cc1c[nH]c2ccccc12)C(=O)OC[C@H]1OC[C@@H](n2cc(/C=C/Br)c(=O)[nH]c2=O)O1 [L-BHDU-L-tryptophan (19), L-BHDU-5′-O-L-tryptophan Ester Hydrochloride] | 64.5 nM | >1550 | >1550 | > 100000 nM |  |
| Cl.N[C@@H](Cc1ccc(O)cc1)C(=O)OC[C@H]1OC[C@@H](n2cc(/C=C/Br)c(=O)[nH]c2=O)O1 [L-BHDU-L-tyrosine (26), L-BHDU-5′-O-L-tyrosine Ester Hydrochloride] | 121 nM | >826 | >826 | > 100000 nM |  |
| Cl.NCC(=O)OC[C@H]1OC[C@@H](n2cc(/C=C/Br)c(=O)[nH]c2=O)O1 [L-BHDU-glycine (14), L-BHDU-5′-O-glycyl Ester Hydrochloride] | 46.9 nM | >2132 | >2132 | > 100000 nM |  |
| CC(C)[C@H](N)C(=O)OCCOCn1cnc2c(=O)[nH]c(N)nc21 [VACV, valacyclovir] |  |  |  |  | effect on VZV spread (VZV; 120 mg/kg/day, SCID-hu mouse): no effect; effect on VZV replication (VZV; SCID-hu mice): did not affect VZV replication |
| Nc1nc2c(ncn2COCCO)c(=O)[nH]1 [acyclovir (ACV), acyclovir, reference compound] |  |  |  | > 100000 nM |  |
| Nc1ccn(C[C@@H](CO)OCP(=O)(O)O)c(=O)n1 [cidofovir (CDV), cidofovir, reference compound] | 482 nM |  | >208 | > 100000 nM | EC50 (VZV-ORF57-ΔTK; [6]): 420 nM; activity against VZV-ORF57-ΔTK (in words) (VZV-ORF57-ΔTK; [7]): effective; EC50 (VZV-ORF57-ΔTKTS; [6]): 1050 nM; activity against VZV-ORF57-ΔTKTS (in words) (VZV-ORF57-ΔTKTS; [7]): effective; EC50 (VZV-ORF57-Luc [4]; [6]): 370 nM; EC50 (VZV-ORF57-ΔTS; [6]): 10 nM |
| CC(C)(C)OC(=O)N[C@@H](Cc1ccc(O)cc1)C(=O)O [compound 27] |  | >2481 |  |  |  |
| Bis(POC) Prodrug of L-BHDU-MP [POC-L-BHDU-MP (47)] |  | >2915 | >2915 |  | EC50 (VZV-ORF57-ΔTK; [8]): > 2000 nM; EC50 (VZV-ORF57-ΔTKTS; [9]): > 2000 nM; CC50 (ARPE-19 cells): > 100000 nM; EC50 (VZV-ORF57-Luc [4]; [10]): 40 nM; EC50 (VZV-ORF57-ΔTS; [11]): 8.4 nM; EC50 (VZV-ORF57-Luc [2]): 34.3 nM; EC50 (VZV-ORF57-Luc [2]; listed as POC-L-BHDU-MP): 34 nM; SI (CC50/EC50) (VZV-ORF57-Luc [2]; selectivity index = CC50/EC50, ARPE-19 cells, listed as POC-L-BHDU-MP): > 2915 |
| L-BHDU-5′-[(2-hexadecyloxyethyl)phosphate] [HDP-L-BHDU-MP (39)] |  | 35 | 35 |  | CC50 (ARPE-19 cells): 18500 nM; EC50 (VZV-ORF57-Luc [2]): 526 nM; EC50 (VZV-ORF57-Luc [2]; listed as 39): 530 nM |
| L-BHDU-5′-[(2-octadecyloxyethyl)phosphate] [ODE-L-BHDU-MP (38)] |  | 339 | 339 |  | EC50 (VZV-ORF57-ΔTK; [8]): > 2000 nM; EC50 (VZV-ORF57-ΔTKTS; [9]): > 2000 nM; CC50 (ARPE-19 cells): 33900 nM; fold more potent compared to ACV (VZV-ORF57-Luc [4]; cell-associated VZV-ORF57-Luc): 9 fold; EC50 (VZV-ORF57-Luc [4]; [10]): 820 nM; EC50 (VZV-ORF57-ΔTS; [11]): 0.8 nM; EC50 (VZV-ORF57-Luc [2]): 100 nM |
